According to US20040242508A1, “Novel hydroxyalkyl indolocarbazole derivatives, preparation method and pharmaceutical compositions containing the same” (priority 2001, published 2004):

Legend:
[1] = molecular target: T1, Glycogen synthase kinase 3 (Rattus norvegicus, UniProt P18266); assay: Inhibitory activity in respect of GSK-3; type: biochemical; details: GS-1 peptide substrate, 15 μM ATP, 30 minutes at 30° C.
T1 construct: made in house; host or cells: Sf9 insect cells
Description: Glycogen synthase kinase 3 was purified starting from Sf9 cells transfected as described in Eur. J. Biochem., 1992, 305-311. The reaction mixture comprises, in a final volume of 30 μl: 1 mg/ml of BSA, 10 mM DTT, 6.7 μM GS-1 peptide as substrate, 15 μM [γ-^32P]ATP (3000 Ci/mmol, 1 mCi/ml), 10 mM MgCl2, 1 mM EGTA, 25mM Tris-HCl pH=7.5, 50 μg/ml of heparin, and the inhibitor at a given concentration. After 30 minutes at 30° C., 25 μl of the mixture are deposited on Whatman® P81 phosphocellulose paper filters, which are then washed 5 times with 10 ml of phosphoric acid (10 ml/l). The radioactivity of the filters is then counted in the presence of 1 ml of scintillation liquid. The IC50 values are estimated from dose-response curves.

CDK1/cyclin B = assay: Inhibitory activity in respect of CDK-1; type: biochemical, starfish (Marthasterias glacialis); details: histone H1 substrate, 15 μM ATP, 10 minutes at 30° C.
Description: The enzyme was purified from a starfish (Marthasterias glacialis) oocyte homogenate at M phase as described in Eur. J. Biochem, 1997, 243, 527-536 and J. Biol. Chem.,1999, 274, 11977-11986. The reaction mixture comprises, in a volume of 30 μl: 1 mg/ml of histone H1 as substrate, 15 μM [γ-^32P]ATP (3000 Ci/mmol, 1 mCi/ml), 15 mM MgCl2, 60 mM β-glycerophosphate, 15 mM p-nitrophenylphosphate, 25 mM MOPS pH=7.2, 5 mM EGTA, 1 mM DTT, 1 mM sodium vanadate, and the inhibitor at a given concentration. After 10 minutes' incubation at 30° C., 25 μl of the reaction mixture are removed and treated as described above in the GSK-3 protocol. The IC50 values are estimated from dose-response curves.

CDK5/p25 complex = CDK5/p25 complex (Homo sapiens, UniProt Q00535); assay: Inhibitory activity in respect of CDK5; type: biochemical; details: CDK5 activated by p25 (1/1 mixture), measured as for CDK1/cyclin B
Chain of CDK5/p25 complex (Q00535 whole entry, species assumed, the tested form may be a part): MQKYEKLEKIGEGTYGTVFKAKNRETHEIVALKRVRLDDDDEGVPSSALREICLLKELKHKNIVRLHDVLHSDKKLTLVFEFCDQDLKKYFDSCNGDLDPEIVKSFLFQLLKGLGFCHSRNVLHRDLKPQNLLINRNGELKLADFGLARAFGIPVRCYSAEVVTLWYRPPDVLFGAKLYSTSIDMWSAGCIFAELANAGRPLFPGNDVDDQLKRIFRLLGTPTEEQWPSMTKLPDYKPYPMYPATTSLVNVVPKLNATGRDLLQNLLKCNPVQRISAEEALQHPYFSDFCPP
Chain of CDK5/p25 complex (Q15078 99-307 partner limits assumed, species assumed): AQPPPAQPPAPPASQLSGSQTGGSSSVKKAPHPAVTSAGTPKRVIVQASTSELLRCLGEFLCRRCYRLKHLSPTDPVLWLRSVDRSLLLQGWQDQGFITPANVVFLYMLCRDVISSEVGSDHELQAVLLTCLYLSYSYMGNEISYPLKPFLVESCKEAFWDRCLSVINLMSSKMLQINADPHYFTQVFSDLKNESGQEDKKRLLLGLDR
Description: CDK5 was expressed in E. coli in the form of a GST (Glutathione-S-transferase) fusion protein and purified on a glutathione-agarose affinity column. CDK5 is then activated by p25 (1/1 mixture), prepared in the same manner. The enzymatic activity of the CDK5/p25 complex is measured as described above for CDK1/cyclin B. The IC50 values are estimated from dose-response curves.

T1 sequence (P18266 whole entry): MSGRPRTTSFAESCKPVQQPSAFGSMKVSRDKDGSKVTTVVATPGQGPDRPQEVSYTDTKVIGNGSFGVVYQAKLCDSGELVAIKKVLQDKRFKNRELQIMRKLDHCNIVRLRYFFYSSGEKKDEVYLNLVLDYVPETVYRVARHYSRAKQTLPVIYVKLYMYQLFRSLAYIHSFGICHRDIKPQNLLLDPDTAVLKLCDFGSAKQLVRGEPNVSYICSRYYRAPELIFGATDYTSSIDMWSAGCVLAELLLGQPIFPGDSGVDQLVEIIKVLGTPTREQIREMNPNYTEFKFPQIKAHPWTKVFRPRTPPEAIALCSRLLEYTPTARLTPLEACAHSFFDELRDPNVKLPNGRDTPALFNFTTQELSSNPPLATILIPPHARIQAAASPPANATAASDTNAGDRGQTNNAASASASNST

Question: With `CO[C@H]1[C@H](O)[C@@H](O)[C@H](n2c3ccc(CO)cc3c3c4c(c5c6cc(CO)ccc6[nH]c5c32)C(=O)NC4=O)O[C@@H]1CO` [Example 1, 3,9-bis(hydroxymethyl)-1 2-(4-O-methyl-β-D-glucopyranosyl)-12,13-dihydro-5H-indolo[2,3-a]pyrrolo[3,4-c]carbazole-5,7(6H)-dione] as the compound, how does the IC50 [1] read?
Answer: 30 nM

Question: And the IC50 (CDK1/cyclin B)?
Answer: > 5 µM

Question: And the IC50 (CDK5/p25 complex)?
Answer: > 5 µM
